Results on 7 compounds are retold here after US6420147B1, “Haloalkaliphilic microorganisms” (Genencor International, Inc., priority 1991, dated 2002).

The subject of experiment [1] is Cluster 4 haloalkaliphilic bacteria. Nature of the experiment: Antibiotic sensitivity, distribution of positive characters. The class given is cell-based, haloalkaliphilic eubacteria. Conditions: share of strains of cluster 4 (78.5% similarity level, SSM) scored positive = clear zone around antibiotic disk; Medium A agar, 37° C., up to 14 days. How it is done:
(§1) A light suspension of bacteria in alkaline, saline, nutrient broth was spread on the surface of alkaline nutrient, saline agar (Medium A) and allowed to dry. Commercially available antibiotic susceptibility test disks (Oxoid or Mast Laboratories: Merseyside, U.K.) were applied to the agar surface. The bacteria were cultivated at 37° C. for up to 14 days. Clear zones around the antibiotic disks indicated sensitivity and were recorded as positive.

For experiment [2], the system named is Cluster 3 haloalkaliphilic bacteria. The experiment is described as above. The format is cell-based, haloalkaliphilic eubacteria. Conditions: share of strains of cluster 3 (78.5% similarity level, SSM) scored positive = clear zone around antibiotic disk; Medium A agar, 37° C., up to 14 days. How it is done: as §1
The test system of a further experiment is Strain 86M.4. The experiment is described as follows: Antibiotic sensitivity (susceptibility test disks on Medium A agar). The format is cell-based. The conditions noted are these: antibiotic disks (contents in Appendix C), 37° C., up to 14 days. How it is done:
as §1

For a further experiment, the system named is Strain 98Nt.4. Described as above. The format is cell-based. The conditions noted are these: antibiotic disks (contents in Appendix C), 37° C., up to 14 days. The protocol:
as §1

A further experiment concerns Strain 103Nt.4. The description is as above. The format is cell-based. The conditions noted are these: antibiotic disks (contents in Appendix C), 37° C., up to 14 days. The protocol:
as §1

The next experiment concerns Strain 93dLM.4. The description is as above. The class given is cell-based. The conditions noted are these: antibiotic disks (contents in Appendix C), 37° C., up to 14 days. The protocol:
as §1

The next experiment deals with Strain 31M.4. The description is as above. The class given is cell-based. The conditions noted are these: antibiotic disks (contents in Appendix C), 37° C., up to 14 days. The protocol: as §1
The test system of another experiment is Strain 95LM.4. Described as above. The format is cell-based. Conditions: antibiotic disks (contents in Appendix C), 37° C., up to 14 days. The protocol:
as §1

A further experiment deals with Strain 931LM.4. The description is as above. The format is cell-based. The conditions noted are these: antibiotic disks (contents in Appendix C), 37° C., up to 14 days. How it is done: as §1
Experiment [3] has as its system Cluster 2 haloalkaliphilic bacteria. Nature of the experiment: Antibiotic sensitivity, distribution of positive characters. The format is cell-based. Conditions: share of strains of cluster 2 (78.5% similarity level, SSM) scored positive = clear zone around antibiotic disk; Medium A agar, 37° C., up to 14 days. The protocol: as §1
Experiment [4] deals with Cluster 1 haloalkaliphilic bacteria. The experiment is described as above. The format is cell-based. The conditions noted are these: share of strains of cluster 1 (78.5% similarity level, SSM) scored positive = clear zone around antibiotic disk; Medium A agar, 37° C., up to 14 days. The protocol: as §1

For `CC1(C)S[C@@H]2[C@H](NC(=O)[C@H](N)c3ccccc3)C(=O)N2[C@H]1C(=O)O` [ampicillin], the “Distribution of positive characters: antibiotic sensitivity, Cluster 4” value (from here on “Distribution of positive characters … Cluster 4”) in experiment [1] is reported as 67. Further, the “Distribution of positive characters: antibiotic sensitivity, Cluster 3” value (from here on “Distribution of positive characters … Cluster 3”) in [2] is 100. Moreover, the “Inhibition of growth by antibiotic” value in the experiment with Strain 86M.4 was “not inhibited”; with Strain 98Nt.4, “not inhibited”; with Strain 103Nt.4 it was “inhibited”; in the experiment on Strain 93dLM.4 it was “inhibited”; in the experiment with Strain 31M.4 it was “inhibited”; with Strain 95LM.4, “inhibited”. Further, in the experiment on Strain 931LM.4, the “Inhibition of growth by antibiotic” value was “inhibited”. In addition, in [3], the “Distribution of positive characters: antibiotic sensitivity, Cluster 2” value (from here on “Distribution of positive characters … Cluster 2”) is reported as 0. The “Distribution of positive characters: antibiotic sensitivity, Cluster 1” value (from here on “Distribution of positive characters … Cluster 1”) in experiment [4] was 0.
With `O=C(N[C@H](CO)[C@H](O)c1ccc([N+](=O)[O-])cc1)C(Cl)Cl` [chloramphenicol], in [1], the “Distribution of positive characters … Cluster 4” value came to 100. Further, the “Distribution of positive characters … Cluster 3” value in [2] is listed as 100. Also, the “Inhibition of growth by antibiotic” value with Strain 86M.4 is “not inhibited”; in the experiment on Strain 98Nt.4 it was “not inhibited”; in the experiment on Strain 103Nt.4 it was “not inhibited”; with Strain 31M.4 it was “inhibited”; with Strain 95LM.4 it was “inhibited”; in the experiment on Strain 931LM.4, “inhibited”. In addition, the “Distribution of positive characters … Cluster 2” value in experiment [3] stood at 0. The “Distribution of positive characters … Cluster 1” value in [4] was determined as 0.
Regarding `CC[C@H]1OC(=O)[C@H](C)[C@@H](O[C@H]2C[C@@](C)(OC)[C@@H](O)[C@H](C)O2)[C@H](C)[C@@H](O[C@@H]2O[C@H](C)C[C@H](N(C)C)[C@H]2O)[C@](C)(O)C[C@@H](C)C(=O)[C@H](C)[C@@H](O)[C@]1(C)O` [erythromycin], the “Distribution of positive characters … Cluster 4” value in [1] is listed as 100. In experiment [2], the “Distribution of positive characters … Cluster 3” value came out at 100. Further, the “Inhibition of growth by antibiotic” value with Strain 86M.4 is listed as “inhibited”; in the experiment on Strain 98Nt.4, “inhibited”; in the experiment with Strain 103Nt.4, “not inhibited”; with Strain 93dLM.4, “inhibited”; with Strain 31M.4, “inhibited”; with Strain 95LM.4 it was “inhibited”. In the experiment with Strain 931LM.4, the “Inhibition of growth by antibiotic” value is listed as “inhibited”. The “Distribution of positive characters … Cluster 2” value in experiment [3] was 73. In addition, in [4], the “Distribution of positive characters … Cluster 1” value turned out to be 86.
On to `CO[C@@H]1[C@@H](OC(N)=O)[C@@H](O)[C@H](Oc2ccc3c(O)c(NC(=O)c4ccc(O)c(CC=C(C)C)c4)c(=O)oc3c2C)OC1(C)C` [novobiocin], for which the “Distribution of positive characters … Cluster 4” value in [1] is 100. Further, the “Distribution of positive characters … Cluster 3” value in [2] was found to be 33. Also, the “Inhibition of growth by antibiotic” value with Strain 86M.4, in the experiment with Strain 98Nt.4, in the experiment on Strain 103Nt.4, in the experiment with Strain 93dLM.4, in the experiment on Strain 31M.4 and in the experiment on Strain 95LM.4 was “inhibited” in each case. The “Inhibition of growth by antibiotic” value in the experiment on Strain 931LM.4 is “inhibited”. Moreover, in experiment [3], the “Distribution of positive characters … Cluster 2” value worked out at 82. Also, the “Distribution of positive characters … Cluster 1” value in [4] is listed as 100.
For the compound `CC1(C)S[C@@H]2[C@H](NC(=O)Cc3ccccc3)C(=O)N2[C@H]1C(=O)O` [penicillin G], the “Inhibition of growth by antibiotic” value with Strain 86M.4 is listed as “not inhibited”; in the experiment on Strain 98Nt.4 it was “not inhibited”; in the experiment on Strain 103Nt.4, “inhibited”; in the experiment with Strain 93dLM.4, “inhibited”; in the experiment with Strain 31M.4, “inhibited”; with Strain 95LM.4, “inhibited”. In addition, the “Inhibition of growth by antibiotic” value in the experiment on Strain 931LM.4 is given as “inhibited”.
In the case of `[H]/N=C(/N)N[C@H]1[C@H](O)[C@@H](O)[C@H](O[C@@H]2O[C@@H](C)[C@](O)(C=O)[C@H]2O[C@@H]2O[C@@H](CO)[C@H](O)[C@@H](O)[C@@H]2NC)[C@@H](N/C(N)=N\[H])[C@@H]1O` [streptomycin], the “Distribution of positive characters … Cluster 4” value in experiment [1] was determined as 0. The “Distribution of positive characters … Cluster 3” value in experiment [2] worked out at 67. In addition, the “Inhibition of growth by antibiotic” value in the experiment on Strain 86M.4 is “not inhibited”; in the experiment on Strain 98Nt.4, “not inhibited”; in the experiment on Strain 103Nt.4, “inhibited”; in the experiment on Strain 93dLM.4 it was “not inhibited”; in the experiment on Strain 31M.4, “inhibited”; with Strain 95LM.4 it was “not inhibited”. The “Inhibition of growth by antibiotic” value with Strain 931LM.4 is “inhibited”. Also, the “Distribution of positive characters … Cluster 2” value in experiment [3] is on record as 18. For the same compound, the “Distribution of positive characters … Cluster 1” value in experiment [4] came out at 0.
Turning to gentamicin, the “Inhibition of growth by antibiotic” value is “not inhibited” in the experiment with Strain 86M.4; “not inhibited” in the experiment with Strain 98Nt.4; “not inhibited” in the experiment with Strain 103Nt.4; “inhibited” in the experiment on Strain 93dLM.4; “inhibited” with Strain 31M.4; “not inhibited” in the experiment with Strain 95LM.4. Further, the “Inhibition of growth by antibiotic” value with Strain 931LM.4 is on record as “inhibited”.
